# Reference: US20250109118A1, “HETEROCYCLIC COMPOUNDS AS SHP2 INHIBITORS, COMPOSITIONS COMPRISING THE HETEROCYCLIC COMPOUND, AND METHODS OF USE THEREOF” (JS INNOMED HOLDINGS LTD., priority 2021, published 2025)
# Test system: MiaPaCa-2 cells
# Assay: MiaPaCa-2 Cell proliferation assay in 3D culture (CCK8)
# Type: cell-based
# Details: Homo sapiens, MIA PaCa-2, 120 h; 3D spheroid culture, 5 days with compound, CCK8 readout
# Protocol: MiaPaCa-2 Cell proliferation assay in 3D culture. To evaluate cell viability, MiaPaCa-2 cells in logarithmic growth phase were seeded at optimal density and grown in as spheroids. Cells were incubated for 24 hours prior to the addition of different concentrations of the compounds. Cells were cultured with the compounds for 5 days and the cell viability was assessed using CCK8. Briefly, 2500 cells were seeded in round bottom ultra-low attachment 96 well plates (coming) in growth media supplemented with 10% FBS and incubated at 37° C. for 24 hours. The compounds were dissolved in DMSO (Sigma) to obtain 10 mM stock solution. Then the compounds were serially diluted in 3-fold to ten concentrations; 5 μL of the dilution above was transferred to 95 uL culture media to obtain the 50× compound stock solution; 4 uL of the 50× compound above was then transferred to the wells containing cells with 196 μL of the culture medium to obtain the final 1× concentration. The final concentration of DMSO was 0.1%. Spheroid cells were incubated in compounds for 5 days. Then 20 μL WST-8 solution (DOJINDO, Cell Counting KIT-8) was added to each well. The plates were further incubated at 37° C. for 1.5 hours, and then absorbance at 450 nm was measured using a microplate reader. Each compound was tested in triplicate and the IC50 value was calculated using GraphPad Prism.
# The IC50 values of for Compounds disclosed are listed in Table 2, A: ≤500 nM; B: >500 nM and ≤5 μM; C: >5 μM and ≤50 μM; and D: >50 μM.
row,SMILES,IC50 [nM]
1,"C[C@@H]1OCC2(CCN(c3cnc(Sc4cccc(NS(=O)(=O)NC(=O)N5CCCC5)c4Cl)cn3)CC2)[C@@H]1N [Example 16, N—(N-(3-((5-((3S,4S)-4-amino-3-methyl-2-oxa-8-azaspiro[4.5]decan-8-yl)pyrazin-2-yl)thio)-2-chlorophenyl)sulfamoyl)pyrrolidine-1-carboxamide]",≤ 500
2,"C[C@@H]1OCC2(CCN(c3cnc(Sc4ccnc(NC(=O)NS(=O)(=O)c5ccccc5)c4F)cn3)CC2)[C@@H]1N [Example 56, N-((4-((5-((3S,4S)-4-amino-3-methyl-2-oxa-8-azaspiro[4.5]decan-8-yl)pyrazin-2-yl)thio)-3-fluoropyridin-2-yl)carbamoyl)benzenesulfonamide]",≤ 500
3,"C[C@@H]1OCC2(CCN(c3cnc(Sc4ccnc(NC(=O)NS(=O)(=O)c5cnn(C)c5)c4Cl)cn3)CC2)[C@@H]1N [Example 55, N-((4-((5-((3S,4S)-4-amino-3-methyl-2-oxa-8-azaspiro[4.5]decan-8-yl)pyrazin-2-yl)thio)-3-chloropyridin-2-yl)carbamoyl)-1-methyl-1H-pyrazole-4-sulfonamide]",≤ 500
4,"C[C@@H]1OCC2(CCN(c3cnc(Sc4cccc(NS(=O)(=O)NC(=O)Nc5ccccc5)c4Cl)cn3)CC2)[C@@H]1N [Example 12, ((3S,4S)-8-(5-((2-chloro-3-((N-(phenylcarbamoyl)sulfamoyl)amino)phenyl)thio)pyrazin-2-yl)-3-methyl-2-oxa-8-azaspiro[4.5]decan-4-yl)amine]",≤ 500
5,"C[C@@H]1OCC2(CCN(c3cnc(Sc4ccnc(NC(=O)NS(=O)(=O)c5ccccc5)c4Cl)cn3)CC2)[C@@H]1N [Example 6, N-((4-((5-((3S,4S)-4-amino-3-methyl-2-oxa-8-azaspiro[4.5]decan-8-yl)pyrazin-2-yl)thio)-3-chloropyridin-2-yl)carbamoyl)benzenesulfonamide]",≤ 500
6,"COc1ccc(S(=O)(=O)NC(=O)Nc2cccc(Sc3cnc(N4CCC5(CC4)CO[C@@H](C)[C@H]5N)cn3)c2Cl)cn1 [Example 64, N-((3-((5-((3S,4S)-4-amino-3-methyl-2-oxa-8-azaspiro[4.5]decan-8-yl)pyrazin-2-yl)thio)-2-chlorophenyl)carbamoyl)-6-methoxypyridine-3-sulfonamide]",≤ 500
7,"CC1(CN)CCN(c2cnc(Sc3cccc(NC(=O)NS(=O)(=O)c4ccccn4)c3Cl)c(N)n2)CC1 [Example 45, N-((3-((3-amino-5-(4-(aminomethyl)-4-methylpiperidin-1-yl)pyrazin-2-yl)thio)-2-chlorophenyl)carbamoyl)pyridine-2-sulfonamide]",≤ 500
8,"Cc1noc(C)c1S(=O)(=O)NC(=O)Nc1cccc(Sc2cnc(N3CCC4(CC3)CO[C@@H](C)[C@H]4N)cn2)c1Cl [Example 65, N-((3-((5-((3S,4S)-4-amino-3-methyl-2-oxa-8-azaspiro[4.5]decan-8-yl)pyrazin-2-yl)thio)-2-chlorophenyl)carbamoyl)-3,5-dimethylisoxazole-4-sulfonamide]",≤ 500
9,"C[C@@H]1OCC2(CCN(c3cnc(Sc4ccnc(NC(=O)NS(=O)(=O)c5cncc(F)c5)c4Cl)cn3)CC2)[C@@H]1N [Example 58, N-((4-((5-((3S,4S)-4-amino-3-methyl-2-oxa-8-azaspiro[4.5]decan-8-yl)pyrazin-2-yl)thio)-3-chloropyridin-2-yl)carbamoyl)-5-fluoropyridine-3-sulfonamide]",≤ 500
10,"C[C@@H]1OCC2(CCN(c3cnc(Sc4cccc(NC(=O)NS(=O)(=O)c5ccccc5F)c4Cl)cn3)CC2)[C@@H]1N [Example 10, N-((3-((5-((3S,4S)-4-amino-3-methyl-2-oxa-8-azaspiro[4.5]decan-8-yl)pyrazin-2-yl)thio)-2-chlorophenyl)carbamoyl)-2-fluorobenzenesulfonamide]",≤ 500
11,"C[C@@H]1OCC2(CCN(c3cnc(Sc4cccc(NC(=O)NS(=O)(=O)C5CC5)c4Cl)cn3)CC2)[C@@H]1N [Example 66, N-((3-((5-((3S,4S)-4-amino-3-methyl-2-oxa-8-azaspiro[4.5]decan-8-yl)pyrazin-2-yl)thio)-2-chlorophenyl)carbamoyl)cyclopropanesulfonamide]",≤ 500
12,"CC1(CN)CCN(c2cnc(Sc3cccc(NC(=O)NS(=O)(=O)c4ccccc4F)c3Cl)c(N)n2)CC1 [Example 47, N-((3-((3-amino-5-(4-(aminomethyl)-4-methylpiperidin-1-yl)pyrazin-2-yl)thio)-2-chlorophenyl)carbamoyl)-2-fluorobenzenesulfonamide]",500 to 5000
13,"COc1ccc(S(=O)(=O)NC(=O)Nc2nccc(Sc3cnc(N4CCC5(CC4)CO[C@@H](C)[C@H]5N)cn3)c2Cl)cn1 [Example 54, N-((4-((5-((3S,4S)-4-amino-3-methyl-2-oxa-8-azaspiro[4.5]decan-8-yl)pyrazin-2-yl)thio)-3-chloropyridin-2-yl)carbamoyl)-6-methoxypyridine-3-sulfonamide]",≤ 500
14,"C[C@@H]1OCC2(CCN(c3cnc(Sc4cccc(NC(=O)NS(=O)(=O)c5ccccc5)c4Cl)cn3)CC2)[C@@H]1N [Example 49, N-((3-((5-((3S,4S)-4-amino-3-methyl-2-oxa-8-azaspiro[4.5]decan-8-yl)pyrazin-2-yl)thio)-2-chlorophenyl)carbamoyl)benzenesulfonamide]",≤ 500
15,"C[C@@H]1OCC2(CCN(c3cnc(Sc4cccc(NC(=O)NS(=O)(=O)c5ccccn5)c4Cl)cn3)CC2)[C@@H]1N [Example 63, N-((3-((5-((3S,4S)-4-amino-3-methyl-2-oxa-8-azaspiro[4.5]decan-8-yl)pyrazin-2-yl)thio)-2-chlorophenyl)carbamoyl)pyridine-2-sulfonamide]",≤ 500
16,"C[C@@H]1OCC2(CCN(c3cnc(Sc4ccnc(NC(=O)NS(=O)(=O)c5ccccc5F)c4Cl)cn3)CC2)[C@@H]1N [Example 52, N-((4-((5-((3S,4S)-4-amino-3-methyl-2-oxa-8-azaspiro[4.5]decan-8-yl)pyrazin-2-yl)thio)-3-chloropyridin-2-yl)carbamoyl)-2-fluorobenzenesulfonamide]",≤ 500

# Further lines, results first:
row,IC50 [nM],SMILES
1,≤ 500,"C[C@@H]1OCC2(CCN(c3cnc(Sc4cccc(NC(=O)NS(=O)(=O)c5ccc(F)cc5)c4Cl)cn3)CC2)[C@@H]1N [Example 78, N-((3-((5-((3S,4S)-4-amino-3-methyl-2-oxa-8-azaspiro[4.5]decan-8-yl)pyrazin-2-yl)thio)-2-chlorophenyl)carbamoyl)-4-fluorobenzenesulfonamide]"
2,≤ 500,"C[C@@H]1OCC2(CCN(c3cnc(Sc4cccc(NC(=O)NS(=O)(=O)c5cnn(C)c5)c4Cl)cn3)CC2)[C@@H]1N [Example 79, N-((3-((5-((3S,4S)-4-amino-3-methyl-2-oxa-8-azaspiro[4.5]decan-8-yl)pyrazin-2-yl)thio)-2-chlorophenyl)carbamoyl)-1-methyl-1H-pyrazole-4-sulfonamide]"
3,≤ 500,"C[C@@H]1OCC2(CCN(c3cnc(Sc4ccnc(NC(=O)NS(C)(=O)=O)c4Cl)cn3)CC2)[C@@H]1N [Example 77, N-((4-((5-((3S,4S)-4-amino-3-methyl-2-oxa-8-azaspiro[4.5]decan-8-yl)pyrazin-2-yl)thio)-3-chloropyridin-2-yl)carbamoyl)methanesulfonamide]"
4,≤ 500,"C[C@@H]1OCC2(CCN(c3cnc(Sc4cccc(NC(=O)NS(=O)(=O)C5CCCC5)c4Cl)cn3)CC2)[C@@H]1N [Example 73, N-((3-((5-((3S,4S)-4-amino-3-methyl-2-oxa-8-azaspiro[4.5]decan-8-yl)pyrazin-2-yl)thio)-2-chlorophenyl)carbamoyl)cyclopentanesulfonamide]"
5,≤ 500,"C[C@@H]1OCC2(CCN(c3cnc(Sc4cccc(NC(=O)NS(=O)(=O)N5CCC(N)C5)c4Cl)cn3)CC2)[C@@H]1N (stereo partly drawn) [Example 84, 3-amino-N-((3-((5-((3S,4S)-4-amino-3-methyl-2-oxa-8-azaspiro[4.5]decan-8-yl)pyrazin-2-yl)thio)-2-chlorophenyl)carbamoyl)pyrrolidine-1-sulfonamide]"
6,≤ 500,"C[C@@H]1OCC2(CCN(c3cnc(Sc4cccc(NC(=O)NS(=O)(=O)C5CCC5)c4Cl)cn3)CC2)[C@@H]1N [Example 82, N-((3-((5-((3S,4S)-4-amino-3-methyl-2-oxa-8-azaspiro[4.5]decan-8-yl)pyrazin-2-yl)thio)-2-chlorophenyl)carbamoyl)cyclobutanesulfonamide]"
7,≤ 500,"C[C@@H]1OCC2(CCN(c3cnc(Sc4cccc(NC(=O)NS(=O)(=O)C5CCOCC5)c4Cl)cn3)CC2)[C@@H]1N [Example 68, N-((3-((5-((3S,4S)-4-amino-3-methyl-2-oxa-8-azaspiro[4.5]decan-8-yl)pyrazin-2-yl)thio)-2-chlorophenyl)carbamoyl)tetrahydro-2H-pyran-4-sulfonamide]"
8,≤ 500,"C[C@@H]1OCC2(CCN(c3cnc(Sc4cccc(NC(=O)NS(=O)(=O)N5CCC(O)C5)c4Cl)cn3)CC2)[C@@H]1N (stereo partly drawn) [Example 81, N-((3-((5-((3S,4S)-4-amino-3-methyl-2-oxa-8-azaspiro[4.5]decan-8-yl)pyrazin-2-yl)thio)-2-chlorophenyl)carbamoyl)-3-hydroxypyrrolidine-1-sulfonamide]"
